Measured values taken from US10703698B2, “Compounds which activate estrogen receptors and compositions and methods of using the same” (The Board of Trustees of the University of Illinois, priority 2016, dated 2020).
“Also recorded” adds a separate entry of the source.

Assays:
[1] = system: LRRC54 gene; experiment: LRRC54 (non-genomic gene) mRNA expression, qPCR; conditions: MCF-7 cells; 1 μM PaPE or 10 nM E2 for 4 h where stated; versus vehicle, E2 or compound 2
Text: (§2) Quantitation of signal intensities is shown in panel at the right.

[2] = biological target: T1, purified full-length human ERα (Homo sapiens, UniProt P03372); experiment: competitive radiometric binding assay, relative binding affinity (RBA); conditions: relative to estradiol = 100
T1 construct: using purified full-length human ERα and ERβ
T1 sequence (P03372 1-595): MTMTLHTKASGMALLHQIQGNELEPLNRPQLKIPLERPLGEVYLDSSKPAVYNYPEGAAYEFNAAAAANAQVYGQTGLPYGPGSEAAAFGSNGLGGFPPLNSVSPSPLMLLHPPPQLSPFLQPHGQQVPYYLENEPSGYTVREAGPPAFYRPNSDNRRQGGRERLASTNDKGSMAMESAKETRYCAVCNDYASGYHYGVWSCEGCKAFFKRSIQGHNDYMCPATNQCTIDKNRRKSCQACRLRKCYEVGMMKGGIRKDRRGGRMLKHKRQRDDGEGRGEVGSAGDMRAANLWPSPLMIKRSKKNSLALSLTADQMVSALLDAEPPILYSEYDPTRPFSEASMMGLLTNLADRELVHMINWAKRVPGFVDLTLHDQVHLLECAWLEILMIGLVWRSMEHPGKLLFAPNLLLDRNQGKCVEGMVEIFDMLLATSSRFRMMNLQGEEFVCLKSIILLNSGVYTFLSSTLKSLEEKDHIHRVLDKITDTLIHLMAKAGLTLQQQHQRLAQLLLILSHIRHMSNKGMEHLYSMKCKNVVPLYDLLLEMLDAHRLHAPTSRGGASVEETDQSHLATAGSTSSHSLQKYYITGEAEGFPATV
Text: (§1) FIG. 1. […] […]

[3] = biological target: T2, purified full-length human ERβ (Homo sapiens, UniProt Q92731); experiment: as above; conditions: relative to estradiol = 100
T2 construct: using purified full-length human ERα and ERβ
T2 sequence (Q92731 whole entry): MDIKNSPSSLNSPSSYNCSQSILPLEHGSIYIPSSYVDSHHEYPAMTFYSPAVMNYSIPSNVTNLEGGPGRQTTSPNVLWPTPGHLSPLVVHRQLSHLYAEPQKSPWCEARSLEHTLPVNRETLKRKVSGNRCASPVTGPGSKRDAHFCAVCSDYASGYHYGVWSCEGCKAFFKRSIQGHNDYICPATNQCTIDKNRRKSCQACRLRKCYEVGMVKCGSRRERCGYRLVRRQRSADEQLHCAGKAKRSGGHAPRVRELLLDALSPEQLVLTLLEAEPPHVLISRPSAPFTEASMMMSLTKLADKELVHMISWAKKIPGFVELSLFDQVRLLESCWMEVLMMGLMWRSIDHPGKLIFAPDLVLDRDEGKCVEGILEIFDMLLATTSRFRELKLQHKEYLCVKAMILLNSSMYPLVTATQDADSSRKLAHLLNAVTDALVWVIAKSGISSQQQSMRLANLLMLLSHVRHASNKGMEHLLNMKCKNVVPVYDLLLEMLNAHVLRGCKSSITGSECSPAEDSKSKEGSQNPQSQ
Text: as §1

[4] = system: PgR gene; experiment: PgR (genomic gene) mRNA expression, qPCR; conditions: MCF-7 cells; 1 μM PaPE or 10 nM E2 for 4 h where stated; versus vehicle or E2
Text: as §2

[5] = system: LRRC54 gene vs PgR gene; experiment: preferential activation of non-genomic (LRRC54) over genomic (PgR) gene; conditions: relative to activation by E2
[6] = system: eNOS; experiment: eNOS activation in primary endothelial cells (14C-L-arginine to 14C-L-citrulline); assay type: cell-based, bovine; conditions: 15 min; 10 nM ligand (FIG. 9E)
[7] = system: MCF-7 cells; experiment: oleic acid (OA)-induced MCF-7 cell proliferation, WST1; conditions: 100 nM OA, agent 1 μM, 6 days
Experimental: Screening of FFAs for stimulating effects on cell proliferation. […] FFA mix contains all the single free fatty acids tested in this experiment. Lipid mix (mixture of cholesterol and fatty acids) was purchased from Sigma. Six replicates were used in each assay, and the experiment was repeated twice. […] Mean±SEM is plotted.
(D) OA effect on MCF-7 cell proliferation with and without PaPE-1. Dose-response of OA on cell proliferation was tested alone or in combination with and without PaPE-1 (1 μM) for 6 days before WST1 assay. The experiment has six technical replicates and was repeated twice. A two-way analysis of variance (ANOVA) model was fitted to assess the contribution of OA dose and inhibitor (Ctrl, and PaPE-1) treatment on MCF-7 cell proliferation. When the main effects were statistically significant at α=0.05, pairwise t-tests with a Bonferroni correction were employed to identify if treatment were statistically different from each other. **** p<0.0001. Mean±SEM is plotted. […] In the above cell proliferation experiments, MCF-7 cells were treated in whole growth medium adding the designated compounds. The treatment went for 6 days and OD at 450 was measured by WST1 assay. […] The experiment is repeated twice. A two-way analysis of variance (ANOVA) model was fitted to assess the contribution of ligand (Veh or OA) and inhibitor (Ctrl, 4-OH-Tam, Fulv, RAD001 and PaPE-1) treatment on MCF-7 cell proliferation. When the main effects were statistically significant at α=0.05, pairwise t-tests with a Bonferroni correction were employed to identify if treatment were statistically different from each other. **** p<0.0001. Mean±SEM is plotted. […] The MCF-7 cells were treated with Veh, 1 μM 4-OH-tam, 1 μM Fulv, and 1 μM PaPE-1 for six days before WST-1 assay in serum from 63 obese individuals (Left) and in standard cell culture (Right).

Row | Compound | LRRC54 (non-genomic gene) mRNA expression, in words [1] | ERα RBA (relative binding affinity) [2] | ERβ RBA (relative binding affinity) [3] | PgR (genomic gene) mRNA expression, in words [4] | preference for activation of the non-genomic pathway (LRRC54 over PgR), in words [5] | eNOS / NOS activity [6] | OA-induced MCF-7 cell proliferation with added agent [7]
1 | Cc1cc(-c2ccc3c(c2)CCC3C#N)cc(C)c1O (stereo not drawn) [Compound 9, 5-(4-hydroxy-3,5-dimethylphenyl)-2,3-dihydro-1H-indene-1-carbonitrile] | no non-genomic activity | 0.003 ± 0.001 | 0.002 ± 0.001 |  |  |  | 
2 | Cc1cc(C)cc(-c2ccc3c(c2)CCC3O)c1 (stereo not drawn) [Compound 12, 5-(3,5-dimethylphenyl)-2,3-dihydro-1H-inden-1-ol] | some non-genomic activity | 0.001 ± 0 | 0.002 ± 0.001 | strongly stimulate the genomic gene PgR |  |  | 
3 | Cc1cc(-c2ccc(C(C)O)cc2)cc(C)c1O (stereo not drawn) [Compound 15, 4′-(1-hydroxyethyl)-3,5-dimethyl-[1,1′-biphenyl]-4-ol] |  | 0.002 ± 0.001 | 0.005 ± 0.003 |  | some selectivity for the non-genomic gene but less than that of compound 2 | increased NOS activity | 
4 | Cc1cc(-c2ccc3c(c2)CCCC3O)cc(C)c1O (stereo not drawn) [Compound 16, 6-(4-hydroxy-3,5-dimethylphenyl)-1,2,3,4-tetrahydronaphthalen-1-ol] |  | 0.002 ± 0.001 | 0.004 ± 0.003 |  | some selectivity for the non-genomic gene but less than that of compound 2 | increased NOS activity | 
5 | Cc1cc(-c2cccc(CO)c2)cc(C)c1O [Compound 24] |  | 0.005 ± 0.001 | 0.004 ± 0 | slight higher than the vehicle level |  |  | 
6 | Cc1cc(-c2cc(C)c(O)c(C)c2)ccc1CO [Compound 26] |  | <0.001 | 0.002 ± 0.001 | slight higher than the vehicle level |  |  | 
7 | Cc1cc(-c2ccc(CO)c(C(F)(F)F)c2)cc(C)c1O [Compound 27] |  | 0.003 ± 0.001 | 0.003 ± 0 | slight higher than the vehicle level |  |  | 
8 | COC1CC(O)c2ccc(-c3cc(C)c(O)c(C)c3)cc21 (stereo not drawn) [Compound 30] | elevated both genomic and nongenomic gene expression to a higher level than does its parent compound 29 | 0.002 ± 0.001 | 0.002 ± 0.001 | elevated both genomic and nongenomic gene expression to a higher level than does its parent compound 29 |  |  | 
9 | Oc1ccc(-c2ccc3c(c2)CCC3O)cc1 (stereo not drawn) [Compound 32] |  | 0.005 ± 0.001 | 0.190 ± 0.04 | stimulate PgR gene expression at a level close to that of E2 |  |  | 
10 | Cc1cc(-c2ccc(O)cc2)cc(C)c1O [Compound 35] | principally loss of LRRC54 gene expression | 0.011 ± 0.003 | 0.755 ± 0.20 |  |  |  | 
11 | Cc1cc(-c2cccc(CCO)c2)cc(C)c1O [Compound 44, 3′-(2-hydroxyethyl)-3,5-dimethyl-[1,1′-biphenyl]-4-ol] | preferentially stimulate LRRC54 better than E2 | 0.001 | 0.001 |  |  |  | 
12 | Cc1cc(-c2ccc(CCO)cc2)cc(C)c1O [Compound 45, 4′-(2-hydroxyethyl)-3,5-dimethyl-[1,1′-biphenyl]-4-ol] | preferentially stimulate LRRC54 better than E2 | 0.001 | 0.002 |  |  |  | 
13 | Cc1cc(-c2ccc3c(c2)CCC3O)ccc1O (stereo not drawn) [Compound 55, 5-(4-hydroxy-3-methylphenyl)-2,3-dihydro-1H-inden-1-ol] |  | 0.002 | 0.004 | stimulated two fold greater than that with E2 |  |  | 
14 | Cc1cc(-c2ccc3c(c2)CCC3O)cc(CO)c1O (stereo not drawn) [Compound 56, 5-(4-hydroxy-3-(hydroxymethyl)-5-methylphenyl)-2,3-dihydro-1H-inden-1-ol] | increases the expression of the non-genomic LRRC54 gene | <0.001 | <0.001 |  | considerable non-genomic gene selectivity |  | 
15 | OCc1cc(-c2ccc3c(c2)CCC3O)ccc1O (stereo not drawn) [Compound 57, 5-(4-hydroxy-3-(hydroxymethyl)phenyl)-2,3-dihydro-1H-inden-1-ol] | increases the expression of the non-genomic LRRC54 gene |  |  |  | considerable non-genomic gene selectivity |  | 
16 | Cc1cc(-c2ccc(O)c(CO)c2)cc(C)c1O [Compound 59, 3′-(hydroxymethyl)-3,5-dimethyl-[1,1′-biphenyl]-4,4′-diol] | expression level is less than for compound 2 |  |  |  | selective expression of the non-genomic LRRC54 gene compared to E2 |  | 
17 | Cc1cc(-c2ccc(CO)c(O)c2)cc(C)c1O [Compound 60, 4-(hydroxymethyl)-3′,5′-dimethyl-[1,1′-biphenyl]-3,4′-diol] | expression level is less than for compound 2 | <0.001 | ~0.001 |  | selective expression of the non-genomic LRRC54 gene compared to E2 |  | 
18 | Oc1c(Cl)cc(-c2ccc3c(c2)CCC3O)cc1Cl (stereo not drawn) [Compound 63, 5-(3,5-dichloro-4-hydroxyphenyl)-2,3-dihydro-1H-inden-1-ol] | two-fold less than that of compound 2 | 0.005 | 0.006 |  | stimulates the non-genomic gene LRRC54 selectively |  | 
19 | OCc1cc(-c2cc(Cl)c(O)c(Cl)c2)ccc1O [Compound 64, 3,5-Dichloro-3′-(hydroxymethyl)-[1,1′-biphenyl]-4,4′-diol] | expression level is less than for compound 2 |  |  |  | selective expression of the non-genomic LRRC54 gene compared to E2 |  | 
20 | CC(=O)NCCNC(=O)CCC(C)(c1ccc(O)cc1)c1ccc(O)cc1 [PaPE-4, Diphenolic acid-NHEtNHAc] |  |  |  |  |  | increased NOS activity | 
21 | CO[C@H]1C[C@@H]2CC[C@@H](C)[C@@](O)(O2)C(=O)C(=O)N2CCCC[C@H]2C(=O)O[C@H]([C@H](C)C[C@@H]2CC[C@@H](OCCO)[C@H](OC)C2)CC(=O)[C@H](C)/C=C(\C)[C@@H](O)[C@@H](OC)C(=O)[C@H](C)C[C@H](C)/C=C/C=C/C=C/1C [RAD001] |  |  |  |  |  |  | blocked OA-induced cell proliferation; also recorded: suppressed
22 | O=C(c1ccc(OCCN2CCCCC2)cc1)c1c(-c2ccc(O)cc2)sc2cc(O)ccc12 [Raloxifene, reference compound] | blocks expression of both the non-genomic LRRC54 and genomic PgR genes |  |  | blocks expression of both the non-genomic LRRC54 and genomic PgR genes | Neither Raloxifene (RAL) nor hydroxytamoxifen (TOT) show selective activation of the non-genomic gene LRRC54 |  | 
